Reference: patent publication US5196547A, “Meso-azacyclic amides of imidazopyridine carboxylic acids and analogs thereof” (G. D. Searle & Co., priority 1992, dated 1993)

Target: T1, 5-HT3 receptor (Rattus norvegicus, UniProt P35563)
T1 construct: Brain cortices are obtained from male rats and a membrane fraction prepared by standard techniques; from tissue; host or cells: male rat brain cortex, membrane fraction
T1 sequence (P35563 24-483): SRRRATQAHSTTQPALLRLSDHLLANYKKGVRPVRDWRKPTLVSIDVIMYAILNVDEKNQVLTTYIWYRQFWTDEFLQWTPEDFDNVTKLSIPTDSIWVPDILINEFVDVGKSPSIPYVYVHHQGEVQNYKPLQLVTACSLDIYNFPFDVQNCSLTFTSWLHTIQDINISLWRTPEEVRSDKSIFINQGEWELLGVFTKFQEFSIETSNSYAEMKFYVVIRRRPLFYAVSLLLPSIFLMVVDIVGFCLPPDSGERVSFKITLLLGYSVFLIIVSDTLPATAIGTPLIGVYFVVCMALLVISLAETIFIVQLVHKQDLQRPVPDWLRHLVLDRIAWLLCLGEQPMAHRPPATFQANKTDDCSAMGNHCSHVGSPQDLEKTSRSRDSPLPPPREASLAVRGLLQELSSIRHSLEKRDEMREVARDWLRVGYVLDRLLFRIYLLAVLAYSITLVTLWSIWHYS
Experiment: Serotonin (5-HT3) radioligand receptor binding assay, [3H]-GR65630
Description: 5-HT3 antagonism can be determined by the radioligand receptor binding assay as described herein and in the in vivo Bezold-Jarisch reflex procedure.
GR65630 binds to the 5-HT3 receptor. Brain cortices are obtained from male rats and a membrane fraction prepared by standard techniques. 0.04 mg of membrane prep is incubated with 0.2 nM [^3 H]-GR656630 for 60 minutes at 22° C. […] Membranes are filtered and washed 3 times and the filters are counted to determine [3H]-GR65630 specifically bound.*
*Literature References: Kilpatrick GJ, Jones BJ and Tyers MG. Identification and distribution of 5-HT3 receptors in rat brain using radioligand binding. Nature, 330 : 746-748, 1987.

SMILES | IC50 | Ki | Kd | % Specific Binding ([3H]-GR65630, non-specific binding in the presence of 1 uM ICS 205-930)
COc1ccc2[nH]cc(C3=CCNCC3)c2c1 [RU24969] | 320 nM | 1850 nM | – | –
COc1cc(N)c(Cl)cc1C(=O)NC1CN2CCC1CC2 (centres unmarked) [Zacopride] | 0.55 nM | 0.18 nM | – | –
c1ccc2nc(N3CCNCC3)ccc2c1 [Quipazine] | 0.5 nM | 0.18 nM | – | –
Cc1nc[nH]c1CCC(=O)c1cn(C)c2ccccc12 [GR65630] | – | – | 2.46 nM | 70%
